Values after ≈ are worked out from the molar mass of the structure shown. Values joined by “and” are separate entries in the source; they are usually repeats but may differ in a detail not shown here. Identical values can stand only once. One block for each compound: values may come before it.
Assays:
Assay in all cases: ≥ marks a high value that may be exact or a test limit, other limits are often not marked, values filed in µg/mL are converted to µM
[1] = test system: Acinetobacter baumannii ATCC 19606
Bacillus megaterium = test system: Bacillus megaterium
[2] = test system: Candida albicans ATCC 90028
[3] = test system: Enterococcus faecalis ATCC 29212
[4] = test system: Escherichia coli ATCC 25922
[5] = test system: Escherichia coli ATCC 35218
Escherichia coli ML-35p = test system: Escherichia coli ML-35p
Helicobacter pylori = test system: Helicobacter pylori
[6] = test system: Klebsiella pneumoniae ATCC 13883
[7] = test system: Legionella feeleii ATCC 35072
[8] = test system: Legionella longbeachae ATCC 33484
[9] = test system: Legionella pneumophila ATCC 33155
[10] = test system: Legionella pneumophila Paris
Listeria ivanovii = test system: Listeria ivanovii
[11] = test system: Pseudomonas aeruginosa ATCC 27853
Saccharomyces cerevisiae = test system: Saccharomyces cerevisiae
[12] = test system: Salmonella enterica subsp. enterica serovar Enteritidis
[13] = test system: Staphylococcus aureus ATCC 25923
[14] = test system: Staphylococcus aureus ATCC 43300
[15] = test system: Staphylococcus aureus ATCC BAA-44
[16] = test system: Staphylococcus aureus ST1065
[17] = test system: Streptococcus pyogenes ATCC 19615
[18] = test system: Acinetobacter baumannii ATCC 17978
[19] = test system: Acinetobacter baumannii AYE
Escherichia coli LEC001 = test system: Escherichia coli LEC001
[20] = test system: Escherichia coli NCTC 12923
Escherichia coli = test system: Escherichia coli
Klebsiella pneumoniae M6 = test system: Klebsiella pneumoniae M6
[21] = test system: Klebsiella pneumoniae NCTC 13368
[22] = test system: Pseudomonas aeruginosa NCTC 13437
[23] = test system: Pseudomonas aeruginosa PAO1
[24] = test system: Staphylococcus aureus ATCC 9144
[25] = test system: Staphylococcus aureus NCTC 13616
[26] = test system: Staphylococcus aureus USA 300
Staphylococcus aureus = test system: Staphylococcus aureus
[27] = test system: Candida albicans ATCC 10231
[28] = test system: Cutibacterium acnes ATCC 11828
[29] = test system: Cutibacterium acnes ATCC 15725
[30] = test system: Cutibacterium acnes ATCC 18380
[31] = test system: Cutibacterium acnes ATCC 29903
[32] = test system: Cutibacterium acnes ATCC 31766
[33] = test system: Cutibacterium acnes ATCC 32548
[34] = test system: Cutibacterium acnes ATCC 33257
[35] = test system: Cutibacterium acnes ATCC 50247
[36] = test system: Enterococcus faecalis NCTC 12697
[37] = test system: Escherichia coli ATCC 25726
[38] = test system: Escherichia coli ATCC 8739
[39] = test system: Escherichia coli ATCC BAA-2340
[40] = test system: Klebsiella pneumoniae ATCC 43816
[41] = test system: Klebsiella pneumoniae ATCC BAA-1705
[42] = test system: Pseudomonas aeruginosa ATCC 9027
[43] = test system: Pseudomonas aeruginosa B004 V2S2B
[44] = test system: Staphylococcus aureus ATCC 6538
[45] = test system: Staphylococcus aureus NCTC 12493

MIC [1]: 6 µM (≈ 8.29 µg/mL)
MIC (Bacillus megaterium): 2 µM (≈ 2.76 µg/mL)
MIC [2]: 16 µM and 25 µM
MIC [3]: 11 µM (≈ 15.1 µg/mL)
MIC [4]: 10 µM (≈ 13.8 µg/mL)
MIC [5]: 10 µM (≈ 13.8 µg/mL)
MIC (Escherichia coli ML-35p): 12 µM (≈ 16.6 µg/mL)
MIC (Helicobacter pylori): 17.7 µM (≈ 24.4 µg/mL)
MIC [6]: 12 µM (≈ 16.6 µg/mL)
MIC [7]: 1.56 µM (≈ 2.16 µg/mL)
MIC [8]: 1.56 µM (≈ 2.16 µg/mL)
MIC [9]: 3.12 µM (≈ 4.31 µg/mL)
MIC [10]: 1.56 µM (≈ 2.16 µg/mL)
MIC (Listeria ivanovii): 6 µM (≈ 8.29 µg/mL)
MIC [11]: 31 µM and 50 µM
MIC (Saccharomyces cerevisiae): 8 µM and 12 µM
MIC [12]: 25 µM (≈ 34.5 µg/mL)
MIC [13]: 3 µM (≈ 4.15 µg/mL)
MIC [14]: 6 µM (≈ 8.29 µg/mL)
MIC [15]: 6 µM (≈ 8.29 µg/mL)
MIC [16]: 6 µM (≈ 8.29 µg/mL)
MIC [17]: 6 µM (≈ 8.29 µg/mL)
Structure (SMILES): CC[C@H](C)[C@H](NC(=O)CNC(=O)[C@H](CO)NC(=O)[C@H](CC(C)C)NC(=O)[C@@H](N)Cc1ccccc1)C(=O)N[C@H](C(=O)NCC(=O)N[C@@H](CCSC)C(=O)N[C@@H](CC(C)C)C(=O)NCC(=O)N[C@@H](CCCCN)C(=O)N[C@@H](CC(C)C)C(=O)N[C@@H](Cc1ccccc1)C(=O)O)C(C)C [FLSGIVGMLGKLF]

MIC [18]: 1.53 µM (≈ 4 µg/mL)
MIC [19]: 3.06 µM (≈ 8 µg/mL)
MIC (Escherichia coli LEC001): 3.06 µM (≈ 8 µg/mL)
MIC [20]: 3.06 µM (≈ 8 µg/mL)
MIC (Escherichia coli): 12.5 µM (≈ 32.7 µg/mL)
MIC (Klebsiella pneumoniae M6): 12.2 µM (≈ 32 µg/mL)
MIC [21]: 12.2 µM (≈ 32 µg/mL)
MIC [22]: 24.5 µM (≈ 64 µg/mL)
MIC [23]: > 49 µM
MIC [24]: 1.53 µM (≈ 4 µg/mL)
MIC [25]: 1.53 µM (≈ 4 µg/mL)
MIC [26]: 3.06 µM (≈ 8 µg/mL)
MIC (Staphylococcus aureus): 6 µM (≈ 15.7 µg/mL)
Structure (SMILES): CC[C@H](C)[C@H](NC(=O)[C@H](CCCCN)NC(=O)[C@H](CC(C)C)NC(=O)[C@H](C)NC(=O)[C@H](C)NC(=O)[C@H](CCCCN)NC(=O)[C@H](CC(C)C)NC(=O)[C@H](C)NC(=O)[C@H](CCCCN)NC(=O)CNC(=O)[C@H](CC(C)C)NC(=O)[C@H](Cc1ccccc1)NC(=O)[C@H](CO)NC(=O)CNC(=O)[C@H](Cc1ccccc1)NC(=O)CN)C(=O)NCC(=O)N[C@@H](C)C(=O)N[C@@H](CC(N)=O)C(=O)N[C@H](C(=O)N[C@@H](CC(C)C)C(=O)NCC(=O)NCC(=O)N[C@@H](C)C(=O)N1CCC[C@H]1C(=O)N[C@@H](CCC(N)=O)C(=O)N[C@@H](CCC(N)=O)C(=O)O)C(C)C [GFGSFLGKALKAALKIGANVLGGAPQQ]

MIC [27]: > 512 µM
MIC [2]: ≥ 64 µM
MIC [28]: 12.5 µM (≈ 39 µg/mL)
MIC [29]: 25 µM (≈ 78.1 µg/mL)
MIC [30]: 12.5 µM (≈ 39 µg/mL)
MIC [31]: 25 µM (≈ 78.1 µg/mL)
MIC [32]: 6 µM (≈ 18.7 µg/mL)
MIC [33]: 25 µM (≈ 78.1 µg/mL)
MIC [34]: 6 µM (≈ 18.7 µg/mL)
MIC [35]: 6 µM (≈ 18.7 µg/mL)
MIC [36]: ≥ 512 µM
MIC [37]: ≥ 32 µM
MIC [38]: 16 µM (≈ 50 µg/mL)
MIC [39]: ≥ 32 µM
MIC [40]: ≥ 128 µM
MIC [41]: ≥ 512 µM
MIC [42]: 128 µM (≈ 400 µg/mL)
MIC [43]: ≥ 512 µM
MIC [13]: 64 µM (≈ 200 µg/mL)
MIC [44]: 32 µM (≈ 100 µg/mL)
MIC [45]: ≥ 512 µM
MIC (Staphylococcus aureus): > 512 µM
Structure (SMILES): CC[C@H](C)[C@H](NC(=O)[C@@H](NC(=O)CN)C(C)C)C(=O)N[C@H](C(=O)N[C@@H](CC(=O)O)C(=O)N[C@H](C(=O)N[C@@H](CC(C)C)C(=O)N[C@@H](CCCCN)C(=O)NCC(=O)N[C@@H](C)C(=O)N[C@@H](C)C(=O)N[C@@H](CCCCN)C(=O)N[C@H](C(=O)N[C@H](C(=O)N[C@@H](C)C(=O)N[C@@H](C)C(=O)N[C@@H](CCC(=O)O)C(=O)N[C@@H](CC(C)C)C(=O)N[C@@H](CC(C)C)C(=O)N[C@@H](CCCN=C(N)N)C(=O)N[C@@H](CCCCN)C(=O)N[C@@H](C)C(=O)N[C@@H](Cc1cnc[nH]1)C(=O)N[C@H]1CSSC[C@@H](C(=O)O)NC(=O)[C@H](CO)NC(=O)[C@H](CC(N)=O)NC(=O)[C@H]([C@@H](C)O)NC(=O)[C@H](CC(C)C)NC(=O)[C@H](CCCCN)NC1=O)C(C)C)[C@@H](C)O)[C@@H](C)O)[C@@H](C)CC [GVIIDTLKGAAKTVAAELLRKAHCKLTNSC]

— DBAASP
